Test system: Ba/F3-INSR xenograft
Assay: Xenograft tumor growth inhibition
Format: in vivo, mice
Excerpt: Six week old female NCr nu/nu mice (for SNU-16) or CB-17 SCID female mice (for NCI-H716 and BaF3 models) were purchased from Taconic Farms (Germantown, NY) and allowed to acclimate for greater than 2 weeks. Mice were housed in sterile micro isolator cages with 5 mice per cage and were received food and water ad libitum. Tumor cells were suspended in 50% Matrigel (lot# A9618-BD, Bioscience) and sterile Hanks Balanced Salt Solution (HBSS) for the NCI-H716 model or in HBSS alone for SNU-16. Each mouse was implanted subcutaneously with 5x10^6 cells (SNU-16) or 8x10^6 cells (NCI-H716) or 2x10^6 cells (BaF3) to the upper right flank area. Tumor measurements and body weights were collected two to three times per week with electronic calipers and balance. Tumor weight (mg) was calculated from the equation: length x (width)^2/2. This formula was used to calculate tumor volume assuming unit density 1 mg = 1 mm^3. Treatment was initiated when tumor burden was between 100–200 mgs. Percent inhibition or tumor growth inhibition (TGI) was calculated using the following formula: 100-[mean tumor value of treated / mean tumor value of control] x 100.
Plasma and tumor samples were collected 4 hours post single dose. […] Dosing volume for all groups was 10 mL/kg or 0.1 mL/10 g body weight.

**Q.** For `CC[C@]1(O)C[C@@H]2CN(CCc3c([nH]c4ccccc34)[C@@](C(=O)OC)(c3cc4c(cc3OC)N(C)[C@H]3[C@@](O)(C(=O)OC)[C@H](OC(C)=O)[C@]5(CC)C=CCN6CC[C@]43[C@@H]65)C2)C1` [Vinblastine], which T/C (10 mg/kg IV Q5Dx2, Day 10) is on record?
**A.** 100.48

**Q.** What about the “Tumor Weights (mg), MEAN” value (10 mg/kg IV Q5Dx2, Day 10) of the same molecule?
**A.** 230.70 mg

**Q.** And the T/C (10 mg/kg IV Q5Dx2, Day 13)?
**A.** 42.10

**Q.** And the “Tumor Weights (mg), MEAN” value (10 mg/kg IV Q5Dx2, Day 13)?
**A.** 256.70 mg

**Q.** What about the T/C (10 mg/kg IV Q5Dx2, Day 15) of the same molecule?
**A.** 37.24

**Q.** And the “Tumor Weights (mg), MEAN” value (10 mg/kg IV Q5Dx2, Day 15)?
**A.** 325.90 mg

**Q.** And the T/C (10 mg/kg IV Q5Dx2, Day 17)?
**A.** 11.60

**Q.** And the “Tumor Weights (mg), MEAN” value (10 mg/kg IV Q5Dx2, Day 17)?
**A.** 196.60 mg

**Q.** What about the T/C (10 mg/kg IV Q5Dx2, Day 20) of the same molecule?
**A.** 2.84

**Q.** What about the “Tumor Weights (mg), MEAN” value (10 mg/kg IV Q5Dx2, Day 20) of the same molecule?
**A.** 69.22 mg
